{"source": "patent US10266537B2", "about": "“3-acetylenyl-pyrazole-pyrimidine derivative, and preparation method therefor and uses thereof” (Si Chuan University, priority 2015, dated 2019)", "key": {"[1]": {"tested_on": "transgenic FLK1-GFP fluorescent zebrafish", "assay": "Anti-angiogenesis activity in transgenic zebrafish", "assay_type": "in vivo", "conditions": "FLK1 transgenic zebrafish embryos; 10, 5 and 2.5 μg/mL; compared with the control group", "protocol": "Angiogenesis inhibitory activity of the test compound is represented by the extent of inhibition vascular section between zebrafish with concentrations of 10 μg/mL, 5 μg/mL and 2.5 μg/mL. The positive control is Dasatinib, a drug in breast cancer clinical trials.\nZebrafish Embryo Access: The zebrafish used in this experiment is a vascular fluorescence transgenic zebrafish (FLK1: GFP). The breeding and breeding of zebrafish is based on Westerfield's method. In the day before egg collection, the male and female zebrafish were paired by the ratio 1:1 a. The next day, they natural mating and spawning at a temperature of about 28° C. and sufficient light. Sufficient zebrafish embryos were collected, washed and placed in embryonic culture medium and placed in a 28° C. incubator. The use of morphological and development criteria to identify survival at any time, dead embryos were white, should be promptly removed to prevent water quality deterioration. […]\nResults observed: After zebrafish embryos fertilized 31 h, stripped shell eggs. The embryos were then placed on slides and fixed with 1.5% methylcellulose containing 1‰ of triacaine, followed by observing the count of Inter segmental vessels (ISVs) under fluorescence microscopy."}, "Plk3(h)": {"molecular_target": "Plk3(h) (Homo sapiens (Human), UniProt Q9H4B4)", "assay": "Kinase inhibition assay (KinaseProfiler, 33P-ATP)", "assay_type": "biochemical", "conditions": "read-out: The percentage of the remaining active protein"}, "Mnk2(h)": {"molecular_target": "Mnk2(h) (Homo sapiens (Human), UniProt Q9HBH9)", "assay": "Kinase inhibition assay (KinaseProfiler, 33P-ATP)", "assay_type": "biochemical", "conditions": "read-out: The percentage of the remaining active protein"}, "[2]": {"molecular_target": "PI3 Kinase (p110a/p65a)(m) (Mus musculus (Mouse), UniProt P42337)", "sequence (P42337 whole entry)": "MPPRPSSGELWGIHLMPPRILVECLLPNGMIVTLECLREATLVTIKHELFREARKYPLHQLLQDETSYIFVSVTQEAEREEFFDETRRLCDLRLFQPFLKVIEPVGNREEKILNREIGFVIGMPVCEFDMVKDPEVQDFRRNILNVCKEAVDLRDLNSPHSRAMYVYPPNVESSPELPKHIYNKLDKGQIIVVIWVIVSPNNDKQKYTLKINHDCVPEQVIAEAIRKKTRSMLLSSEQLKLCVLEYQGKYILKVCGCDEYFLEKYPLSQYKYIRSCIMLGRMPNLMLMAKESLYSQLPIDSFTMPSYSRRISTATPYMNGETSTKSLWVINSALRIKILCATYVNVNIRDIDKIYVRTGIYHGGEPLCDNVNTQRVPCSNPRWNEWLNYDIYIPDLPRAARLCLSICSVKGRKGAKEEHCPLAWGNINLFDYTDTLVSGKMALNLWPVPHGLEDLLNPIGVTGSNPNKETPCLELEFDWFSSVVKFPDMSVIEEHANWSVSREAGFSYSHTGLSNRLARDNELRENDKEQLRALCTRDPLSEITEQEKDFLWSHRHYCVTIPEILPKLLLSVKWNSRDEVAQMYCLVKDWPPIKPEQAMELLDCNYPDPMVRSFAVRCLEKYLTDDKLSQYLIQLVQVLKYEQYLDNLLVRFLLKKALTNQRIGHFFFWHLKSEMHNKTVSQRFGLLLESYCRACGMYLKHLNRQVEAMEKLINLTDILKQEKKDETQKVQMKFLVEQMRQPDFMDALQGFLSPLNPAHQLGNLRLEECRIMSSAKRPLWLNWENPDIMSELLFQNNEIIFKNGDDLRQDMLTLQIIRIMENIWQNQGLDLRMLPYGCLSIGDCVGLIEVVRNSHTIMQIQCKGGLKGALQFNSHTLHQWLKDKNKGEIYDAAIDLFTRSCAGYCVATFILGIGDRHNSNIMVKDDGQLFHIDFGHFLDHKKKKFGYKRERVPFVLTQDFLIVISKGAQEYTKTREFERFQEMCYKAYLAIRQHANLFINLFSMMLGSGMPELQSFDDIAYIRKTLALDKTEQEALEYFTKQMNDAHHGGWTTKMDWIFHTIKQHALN", "assay": "Kinase inhibition assay (KinaseProfiler, 33P-ATP)", "assay_type": "biochemical", "conditions": "read-out: The percentage of the remaining active protein"}, "PTK5": {"molecular_target": "PTK5 (Homo sapiens (Human), UniProt P42685)", "sequence (P42685 whole entry)": "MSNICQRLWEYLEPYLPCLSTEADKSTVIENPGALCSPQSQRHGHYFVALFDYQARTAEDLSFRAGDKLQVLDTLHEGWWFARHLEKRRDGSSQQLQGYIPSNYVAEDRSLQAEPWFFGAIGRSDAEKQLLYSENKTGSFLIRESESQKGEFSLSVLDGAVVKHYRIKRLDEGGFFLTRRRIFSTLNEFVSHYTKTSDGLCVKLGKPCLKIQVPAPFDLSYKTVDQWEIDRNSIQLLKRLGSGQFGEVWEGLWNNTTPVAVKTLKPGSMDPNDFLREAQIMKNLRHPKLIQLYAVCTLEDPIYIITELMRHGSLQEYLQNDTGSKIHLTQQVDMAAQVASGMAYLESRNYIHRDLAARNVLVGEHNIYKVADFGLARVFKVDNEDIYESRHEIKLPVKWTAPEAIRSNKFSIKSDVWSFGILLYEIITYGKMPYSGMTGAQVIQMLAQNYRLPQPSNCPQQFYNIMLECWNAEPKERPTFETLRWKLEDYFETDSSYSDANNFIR", "assay": "Kinase inhibition assay (KinaseProfiler, 33P-ATP)", "conditions": "read-out: The percentage of the remaining active protein"}, "Txk": {"molecular_target": "Txk (Homo sapiens (Human), UniProt P42681)", "assay": "Kinase inhibition assay (KinaseProfiler, 33P-ATP)", "assay_type": "biochemical", "conditions": "Txk(h), read-out: The percentage of the remaining active protein"}, "MST2(h)": {"molecular_target": "MST2(h) (Homo sapiens (Human), UniProt Q13188)", "assay": "Kinase inhibition assay (KinaseProfiler, 33P-ATP)", "assay_type": "biochemical", "conditions": "read-out: The percentage of the remaining active protein"}, "Fgr": {"molecular_target": "Fgr (Homo sapiens (Human), UniProt P09769)", "assay": "Kinase inhibition assay (KinaseProfiler, 33P-ATP)", "assay_type": "biochemical", "conditions": "Fgr(h), read-out: The percentage of the remaining active protein"}, "MARK1(h)": {"molecular_target": "MARK1(h) (Homo sapiens (Human), UniProt Q9P0L2)", "assay": "Kinase inhibition assay (KinaseProfiler, 33P-ATP)", "assay_type": "biochemical", "conditions": "read-out: The percentage of the remaining active protein"}, "EphA3": {"molecular_target": "EphA3 (Homo sapiens (Human), UniProt P29320)", "assay": "Kinase inhibition assay (KinaseProfiler, 33P-ATP)", "assay_type": "biochemical", "conditions": "EphA3(h), read-out: The percentage of the remaining active protein"}, "TSSK2(h)": {"molecular_target": "TSSK2(h) (Homo sapiens (Human), UniProt Q96PF2)", "assay": "Kinase inhibition assay (KinaseProfiler, 33P-ATP)", "assay_type": "biochemical", "conditions": "read-out: The percentage of the remaining active protein"}, "Plk1(h)": {"molecular_target": "Plk1(h) (Homo sapiens (Human), UniProt P53350)", "assay": "Kinase inhibition assay (KinaseProfiler, 33P-ATP)", "assay_type": "biochemical", "conditions": "read-out: The percentage of the remaining active protein"}, "Met(M1268T)(h)": {"molecular_target": "Met(M1268T)(h) (Homo sapiens (Human), UniProt P08581, M1268T)", "assay": "Kinase inhibition assay (KinaseProfiler, 33P-ATP)", "assay_type": "biochemical", "conditions": "read-out: The percentage of the remaining active protein"}, "PKG1β(h)": {"molecular_target": "PKG1β(h) (Homo sapiens (Human), UniProt Q13976)", "assay": "Kinase inhibition assay (KinaseProfiler, 33P-ATP)", "assay_type": "biochemical", "conditions": "read-out: The percentage of the remaining active protein"}, "Rsk4(h)": {"molecular_target": "Rsk4(h) (Homo sapiens (Human), UniProt Q9UK32)", "assay": "Kinase inhibition assay (KinaseProfiler, 33P-ATP)", "assay_type": "biochemical", "conditions": "read-out: The percentage of the remaining active protein"}, "DYRK2(h)": {"molecular_target": "DYRK2(h) (Homo sapiens (Human), UniProt Q92630)", "assay": "Kinase inhibition assay (KinaseProfiler, 33P-ATP)", "assay_type": "biochemical", "conditions": "read-out: The percentage of the remaining active protein"}, "EphA4": {"molecular_target": "EphA4 (Homo sapiens (Human), UniProt P54764)", "assay": "Kinase inhibition assay (KinaseProfiler, 33P-ATP)", "assay_type": "biochemical", "conditions": "EphA4(h), read-out: The percentage of the remaining active protein"}, "Blk(m)": {"molecular_target": "Blk(m) (Mus musculus (Mouse), UniProt P16277)", "sequence (P16277 whole entry)": "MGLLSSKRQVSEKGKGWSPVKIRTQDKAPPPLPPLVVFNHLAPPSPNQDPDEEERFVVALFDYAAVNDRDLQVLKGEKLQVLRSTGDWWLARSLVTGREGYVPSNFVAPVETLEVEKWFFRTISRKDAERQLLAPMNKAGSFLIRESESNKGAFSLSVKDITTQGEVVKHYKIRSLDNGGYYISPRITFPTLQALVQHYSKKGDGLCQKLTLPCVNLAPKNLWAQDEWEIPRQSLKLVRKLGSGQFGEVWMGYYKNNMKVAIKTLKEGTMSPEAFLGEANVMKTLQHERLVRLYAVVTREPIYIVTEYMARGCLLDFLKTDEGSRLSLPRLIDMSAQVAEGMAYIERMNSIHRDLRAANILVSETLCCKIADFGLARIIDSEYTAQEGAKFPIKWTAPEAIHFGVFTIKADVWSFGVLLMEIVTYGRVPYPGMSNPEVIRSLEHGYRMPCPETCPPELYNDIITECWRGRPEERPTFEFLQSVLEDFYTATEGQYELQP", "assay": "Kinase inhibition assay (KinaseProfiler, 33P-ATP)", "assay_type": "biochemical", "conditions": "read-out: The percentage of the remaining active protein"}, "DU145": {"tested_on": "DU145", "assay": "Cell proliferation inhibition assay (MTT)", "assay_type": "cell-based", "conditions": "Homo sapiens, DU-145, 72 hours, read-out: Proliferation inhibitory activity IC50", "method": "The cells were seeded in 96-well plates with 200 μL of cell suspension per well and incubated overnight in a cell culture medium with a cell concentration of 1 2×10^4 cells/mL. The next day, the supernatant was discarded (the suspension cell was centrifuged before it) and the cells were treated with gradient concentrations of the test compound, respectively. […] After 72 hours, add 20 μL of MTT reagent at a concentration of 5 mg/mL per well. After incubation for 2-4 h, the supernatant was discarded and 150 μL of DMSO was added to each well. […] Relative cell proliferation inhibition rate=([MUT]-[MUT])×100%/[MUT]. The experiment was repeated at least 3 times. Experimental data were expressed as mean, data statistics using t test, P<0.05 for the difference was statistically significant."}, "SNRK(h)": {"molecular_target": "SNRK(h) (Homo sapiens (Human), UniProt Q9NRH2)", "sequence (Q9NRH2 whole entry)": "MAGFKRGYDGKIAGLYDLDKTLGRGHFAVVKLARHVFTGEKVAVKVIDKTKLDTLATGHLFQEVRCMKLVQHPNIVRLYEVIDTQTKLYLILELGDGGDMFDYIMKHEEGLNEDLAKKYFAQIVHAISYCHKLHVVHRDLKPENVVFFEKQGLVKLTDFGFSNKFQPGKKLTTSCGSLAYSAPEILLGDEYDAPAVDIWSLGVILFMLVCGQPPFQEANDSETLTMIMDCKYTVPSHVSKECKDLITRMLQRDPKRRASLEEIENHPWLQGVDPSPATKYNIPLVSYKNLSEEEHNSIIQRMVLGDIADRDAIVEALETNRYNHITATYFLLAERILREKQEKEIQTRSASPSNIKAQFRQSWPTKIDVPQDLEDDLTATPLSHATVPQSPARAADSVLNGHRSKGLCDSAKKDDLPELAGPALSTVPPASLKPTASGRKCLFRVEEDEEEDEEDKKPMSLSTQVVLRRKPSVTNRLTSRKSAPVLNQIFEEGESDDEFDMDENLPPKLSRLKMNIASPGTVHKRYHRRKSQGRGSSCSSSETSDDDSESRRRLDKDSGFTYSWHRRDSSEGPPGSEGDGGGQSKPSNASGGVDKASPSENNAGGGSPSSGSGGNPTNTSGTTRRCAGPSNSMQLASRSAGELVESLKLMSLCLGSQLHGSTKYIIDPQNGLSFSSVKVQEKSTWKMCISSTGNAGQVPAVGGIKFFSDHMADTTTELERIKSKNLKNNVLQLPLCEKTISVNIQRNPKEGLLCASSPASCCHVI", "assay": "Kinase inhibition assay (KinaseProfiler, 33P-ATP)", "assay_type": "biochemical", "conditions": "read-out: The percentage of the remaining active protein"}, "SGK3(h)": {"molecular_target": "SGK3(h) (Homo sapiens (Human), UniProt Q96BR1)", "assay": "Kinase inhibition assay (KinaseProfiler, 33P-ATP)", "assay_type": "biochemical", "conditions": "read-out: The percentage of the remaining active protein"}, "Ret(V804M)(h)": {"molecular_target": "Ret(V804M)(h) (Homo sapiens (Human), UniProt P07949, V804M)", "sequence (P07949 29-1114 V804M)": "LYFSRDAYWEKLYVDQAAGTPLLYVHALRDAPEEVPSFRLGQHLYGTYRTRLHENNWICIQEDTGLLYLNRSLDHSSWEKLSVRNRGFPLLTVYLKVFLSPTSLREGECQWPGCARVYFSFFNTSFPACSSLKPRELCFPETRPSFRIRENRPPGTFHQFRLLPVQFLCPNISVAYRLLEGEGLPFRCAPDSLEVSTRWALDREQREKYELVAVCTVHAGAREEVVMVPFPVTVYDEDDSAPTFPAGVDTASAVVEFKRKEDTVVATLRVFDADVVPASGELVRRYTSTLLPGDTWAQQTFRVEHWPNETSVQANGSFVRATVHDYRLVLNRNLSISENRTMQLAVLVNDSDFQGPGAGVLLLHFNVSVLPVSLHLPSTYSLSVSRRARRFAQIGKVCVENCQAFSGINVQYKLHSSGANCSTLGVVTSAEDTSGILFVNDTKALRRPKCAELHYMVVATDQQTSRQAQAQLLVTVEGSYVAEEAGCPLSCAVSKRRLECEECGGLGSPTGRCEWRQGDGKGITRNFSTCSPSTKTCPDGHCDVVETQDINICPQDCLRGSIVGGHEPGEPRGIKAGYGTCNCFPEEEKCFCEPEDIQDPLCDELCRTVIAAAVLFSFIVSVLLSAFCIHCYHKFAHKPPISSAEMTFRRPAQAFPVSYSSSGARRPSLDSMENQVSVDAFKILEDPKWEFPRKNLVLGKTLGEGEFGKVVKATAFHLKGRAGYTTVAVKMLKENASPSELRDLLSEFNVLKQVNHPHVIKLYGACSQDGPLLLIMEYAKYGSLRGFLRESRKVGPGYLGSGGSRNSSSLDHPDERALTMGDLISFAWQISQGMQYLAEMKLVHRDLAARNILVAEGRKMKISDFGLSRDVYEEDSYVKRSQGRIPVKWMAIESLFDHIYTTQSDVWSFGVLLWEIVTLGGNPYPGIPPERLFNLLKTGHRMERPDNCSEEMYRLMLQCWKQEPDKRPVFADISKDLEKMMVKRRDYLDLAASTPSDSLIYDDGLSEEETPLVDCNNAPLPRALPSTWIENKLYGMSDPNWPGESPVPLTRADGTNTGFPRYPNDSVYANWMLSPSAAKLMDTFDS", "assay": "Kinase inhibition assay (KinaseProfiler, 33P-ATP)", "assay_type": "biochemical", "conditions": "read-out: The percentage of the remaining active protein"}, "IGF-1R(h), activated": {"molecular_target": "IGF-1R(h), activated (Homo sapiens (Human), UniProt P08069)", "assay": "Kinase inhibition assay (KinaseProfiler, 33P-ATP)", "assay_type": "biochemical", "conditions": "read-out: The percentage of the remaining active protein"}, "SAPK4(h)": {"molecular_target": "SAPK4(h) (Homo sapiens (Human), UniProt O15264)", "sequence (O15264 whole entry)": "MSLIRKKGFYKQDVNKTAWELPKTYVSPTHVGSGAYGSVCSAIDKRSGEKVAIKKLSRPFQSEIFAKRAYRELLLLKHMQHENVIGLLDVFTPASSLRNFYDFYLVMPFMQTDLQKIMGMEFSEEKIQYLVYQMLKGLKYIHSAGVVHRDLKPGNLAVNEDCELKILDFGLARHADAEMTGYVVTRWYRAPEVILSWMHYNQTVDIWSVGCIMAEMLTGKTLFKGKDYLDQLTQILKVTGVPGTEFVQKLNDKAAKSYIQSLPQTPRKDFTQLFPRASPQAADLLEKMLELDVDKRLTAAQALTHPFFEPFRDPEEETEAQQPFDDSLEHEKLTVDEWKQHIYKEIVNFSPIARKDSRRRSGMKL", "assay": "Kinase inhibition assay (KinaseProfiler, 33P-ATP)", "assay_type": "biochemical", "conditions": "read-out: The percentage of the remaining active protein"}, "Lck(h) activated": {"molecular_target": "Lck(h) activated (Homo sapiens (Human), UniProt P06239)", "assay": "Kinase inhibition assay (KinaseProfiler, 33P-ATP)", "assay_type": "biochemical", "conditions": "read-out: The percentage of the remaining active protein"}, "TLK1(h)": {"molecular_target": "TLK1(h) (Homo sapiens (Human), UniProt Q9UKI8)", "assay": "Kinase inhibition assay (KinaseProfiler, 33P-ATP)", "assay_type": "biochemical", "conditions": "read-out: The percentage of the remaining active protein"}, "PAK6(h)": {"molecular_target": "PAK6(h) (Homo sapiens (Human), UniProt Q9NQU5)", "assay": "Kinase inhibition assay (KinaseProfiler, 33P-ATP)", "assay_type": "biochemical", "conditions": "read-out: The percentage of the remaining active protein"}, "FGFR2(N549H)(h)": {"molecular_target": "FGFR2(N549H)(h) (Homo sapiens (Human), UniProt P21802, N549H)", "assay": "Kinase inhibition assay (KinaseProfiler, 33P-ATP)", "assay_type": "biochemical", "conditions": "read-out: The percentage of the remaining active protein"}, "[3]": {"molecular_target": "PI3 Kinase (p110a(E542K)/p85a)(m) (Mus musculus (Mouse), UniProt P42337, E542K)", "sequence (P42337 whole entry E542K)": "as the sequence (P42337 whole entry) above, with E542K counted along it", "sequence (P26450 whole entry partner)": "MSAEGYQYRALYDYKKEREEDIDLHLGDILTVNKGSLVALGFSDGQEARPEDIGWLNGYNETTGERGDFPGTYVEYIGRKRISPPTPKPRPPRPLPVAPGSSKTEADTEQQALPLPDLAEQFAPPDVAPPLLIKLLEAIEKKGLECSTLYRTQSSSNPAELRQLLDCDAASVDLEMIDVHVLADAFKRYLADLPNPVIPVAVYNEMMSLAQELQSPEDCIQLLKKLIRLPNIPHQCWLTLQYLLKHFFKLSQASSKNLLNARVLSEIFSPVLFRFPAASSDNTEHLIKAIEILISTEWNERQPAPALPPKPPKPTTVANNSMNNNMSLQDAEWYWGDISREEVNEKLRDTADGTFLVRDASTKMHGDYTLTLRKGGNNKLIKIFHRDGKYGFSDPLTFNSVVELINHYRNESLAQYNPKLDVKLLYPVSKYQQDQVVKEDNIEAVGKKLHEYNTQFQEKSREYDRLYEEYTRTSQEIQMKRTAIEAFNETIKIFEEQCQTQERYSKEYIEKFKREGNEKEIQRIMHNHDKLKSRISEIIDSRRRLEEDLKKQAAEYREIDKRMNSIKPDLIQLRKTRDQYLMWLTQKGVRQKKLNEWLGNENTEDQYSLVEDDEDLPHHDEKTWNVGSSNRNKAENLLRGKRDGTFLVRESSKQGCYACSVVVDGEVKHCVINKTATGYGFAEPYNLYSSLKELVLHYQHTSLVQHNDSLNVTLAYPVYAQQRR", "assay": "Kinase inhibition assay (KinaseProfiler, 33P-ATP)", "assay_type": "biochemical", "conditions": "read-out: The percentage of the remaining active protein"}}, "data": [{"smiles": "Cc1ccc(NC(=O)c2cccc(C(F)(F)F)c2)cc1C#Cc1nn(C2CCN(C)CC2)c2ncnc(N)c12", "note": "[Compound 31]", "values": [{"measurement": "inhibition of angiogenesis (inter segmental vessels)", "setting": "[1]", "result": "inhibit the angiogenesis of zebrafish significantly"}]}, {"smiles": "Cc1ccc(NC(=O)c2ccc(C)c(C(F)(F)F)c2)cc1C#Cc1nn([C@H]2CC[C@H](O)CC2)c2ncnc(N)c12", "note": "[Compound 93]", "values": [{"measurement": "remaining activity at 10 µM", "setting": "Plk3(h)", "result": 93, "unit": "%"}, {"measurement": "remaining activity at 10 µM", "setting": "Mnk2(h)", "result": 96, "unit": "%"}, {"measurement": "remaining activity at 10 µM", "setting": "[2]", "result": 94, "unit": "%"}, {"measurement": "remaining activity at 10 µM", "setting": "PTK5", "result": 1, "unit": "%"}, {"measurement": "remaining activity at 10 µM", "setting": "Txk", "result": 1, "unit": "%"}, {"measurement": "remaining activity at 10 µM", "setting": "MST2(h)", "result": 63, "unit": "%"}, {"measurement": "remaining activity at 10 µM", "setting": "Fgr", "result": 2, "unit": "%"}, {"measurement": "remaining activity at 10 µM", "setting": "MARK1(h)", "result": 94, "unit": "%"}, {"measurement": "remaining activity at 10 µM", "setting": "EphA3", "result": 3, "unit": "%"}, {"measurement": "remaining activity at 10 µM", "setting": "TSSK2(h)", "result": 96, "unit": "%"}, {"measurement": "remaining activity at 10 µM", "setting": "Plk1(h)", "result": 92, "unit": "%"}, {"measurement": "remaining activity at 10 µM", "setting": "Met(M1268T)(h)", "result": 136, "unit": "%"}, {"measurement": "remaining activity at 10 µM", "setting": "PKG1β(h)", "result": 115, "unit": "%"}, {"measurement": "remaining activity at 10 µM", "setting": "Rsk4(h)", "result": 44, "unit": "%"}, {"measurement": "remaining activity at 10 µM", "setting": "DYRK2(h)", "result": 107, "unit": "%"}, {"measurement": "remaining activity at 10 µM", "setting": "EphA4", "result": -2, "unit": "%"}, {"measurement": "remaining activity at 10 µM", "setting": "Blk(m)", "result": 1, "unit": "%"}, {"measurement": "IC50", "setting": "DU145", "result": "> 10", "unit": "µM"}, {"measurement": "remaining activity at 10 µM", "setting": "SNRK(h)", "result": 92, "unit": "%"}, {"measurement": "remaining activity at 10 µM", "setting": "SGK3(h)", "result": 98, "unit": "%"}, {"measurement": "remaining activity at 10 µM", "setting": "Ret(V804M)(h)", "result": -2, "unit": "%"}, {"measurement": "remaining activity at 10 µM", "setting": "IGF-1R(h), activated", "result": 91, "unit": "%"}, {"measurement": "remaining activity at 10 µM", "setting": "SAPK4(h)", "result": 80, "unit": "%"}, {"measurement": "remaining activity at 10 µM", "setting": "Lck(h) activated", "result": 0, "unit": "%"}, {"measurement": "remaining activity at 10 µM", "setting": "TLK1(h)", "result": 95, "unit": "%"}, {"measurement": "remaining activity at 10 µM", "setting": "PAK6(h)", "result": 92, "unit": "%"}, {"measurement": "remaining activity at 10 µM", "setting": "FGFR2(N549H)(h)", "result": -1, "unit": "%"}, {"measurement": "remaining activity at 10 µM", "setting": "[3]", "result": 92, "unit": "%"}]}]}
